The term pIC50 denotes the IC50 on a negative log10 scale, so that one unit is a factor of ten.

Assay [1] deals with dopamine D2 receptor (DRD2) (Homo sapiens (Human), UniProt P14416). The assay is described as follows: Dopamine D2 receptor antagonism, Fluo-4 calcium fluorescence in HEK293 cells stably expressing DRD2/Gα16. It is filed as cell-based. Particulars: 50 nM Dopamine as agonist, read-out: IC50 for inhibiting dopamine D2 receptor. From the text:
Objective: positive symptoms (hallucination, delusion, etc.) in patients with schizophrenia may be associated with dopamine (DA) hyperfunction in subcortical limbic system, and antipsychotic drugs, which block Dopamine D2 Receptor (DRD2), can effectively control positive symptoms of schizophrenia. By establishing a cell line co-transfected with DRD2 and Gα16, the activated DRD2 can activate Gα16 protein, thereby activating phospholipase C (PLC) to produce inositol 1,4,5-triphosphate (IP3) and diacylglycerol (DAG), wherein IP3 can bind to the IP3 receptor on endoplasmic reticulum and mitochondria, resulting in intracellular calcium release. Therefore, the determination of a change in intracellular calcium can be used as a method for detecting the activated state of DRD2.
Fluo-4/AM was a calcium fluorescent probe indicator for determining calcium ions. In this experiment, a Fluo-4 fluorescence method was used to determine the level of activated Gα protein by measuring the fluorescence intensity excited by intracellular calcium ions. If a compound could activate DRD2, the calcium influx was enhanced; on the contrary, if a compound could antagonize DRD2, the calcium influx was reduced.
Methods: HEK293 cells stably expressing DRD2/Gα16 (a human embryonic kidney cell line, derived from Shanghai Institute of Materia Medica, Chinese Academy of Sciences) were seeded in a 96-well plate (the culture solution was 90% DMEM+10% fetal bovine serum), and incubated overnight. The culture solution was pipetted off, and a freshly prepared dye Fluo-4/AM was added. The cells were incubated in a 37° C. incubator for 40 min. The dye was completely pipetted off. After the cells were washed with a freshly prepared calcium buffer, a calcium buffer (50 μl) dissolved with a test drug was added. FlexStation II instrument was used in the determination. A calcium buffer (25 μl) dissolved with a known agonist was added automatically by the instrument at the fifteenth second, and the fluorescence value at 525 nm (an excitation wavelength of 485 nm) was finally read. […] IC50 value was calculated by GraphPad Prism.

Assay [2] deals with MK-801-induced hyperlocomotion schizophrenia model in mice. The assay is described as follows: MK-801-induced hyperlocomotion schizophrenia model in mice (open-field test). Particulars: within 210 min; for Distance of central district activity / Total distance traveled: 50 mg/kg intragastric, Balb/c mice, MK-801 0.6 mg/kg i.p., Mean ± SE, n = 10; for distance of center square activity, effect in words / total distance of spontaneous activity, effect in words: intragastrical administration, MK-801 model mice. It is filed as in vivo, mouse. From the text:
Objective: Glutamatergic hypofunction is one of the pathogenesis for mental disorders such as schizophrenia. N-methyl-D-aspartic acid (NMDA) receptor antagonists can induce schizophrenia-like effects. In this experiment, a hyperlocomotion schizophrenia model in mice induced by dizocilpine (MK-801), a NMDA receptor antagonist, was used to investigate the in vivo activity of the compounds P6, P5, P4 and P7 of the invention.
Methods: SPF grade inbred Balb/c male mice with no special pathogens (purchased from Laboratory Animal Center of Capital Medical University), weighed (20±2) g, were randomly divided into a control group, a model group, and drug groups. The mice were adapted to the rearing environment for one week, and then were intragastrically administered for 3 days, wherein the control group and model group were intragastrically administered with physiological saline, and on Day 4, the mice were administered prior to test, and then were tested for 60 min in an Open-Field Activity Monitoring System. The control group was then intraperitoneally injected with physiological saline, the model group and the drug groups were intraperitoneally injected with a solution (0.6 mg/kg) of a NMDA receptor antagonist dizocilpine (MK-801), and the mice of these groups were further monitored for spontaneous activity and center square activity within 210 minutes, wherein spontaneous activity was used to reflect the positive symptom of rapid motion in schizophrenia, and center square activity was used to evaluate the anxiety status of schizophrenia.

A further assay concerns Cuprizone model mice. As to the kind of experiment: Ethological change in Cuprizone model mice (Y-maze and open-field behavior test). It is filed as in vivo, mouse. Particulars: intragastrical administration; for number of arm entries in Y-maze, effect in words / spontaneous alternation in Y-maze, effect in words: within 8 min; for number of arm entries in Y-maze, effect in words: FIG. 6; for spontaneous alternation in Y-maze, effect in words: FIG. 7; for total distance of spontaneous activity in open-field test, effect in words: within 10 min, FIG. 8. From the text:
Objective: neuroinflammation, pathological changes in white matter, and demyelination are the important pathogenesis for many central nervous system diseases. Cuprizone (dicyclohexanoneoxaly dihydrazone) can cause changes such as inflammation, demyelination, axonal injury, and cognitive function impairment. In this experiment, Y-maze and open-field behavior test were used to study the effects of the compounds of the invention on memory function and motion in a Cuprizone mouse model.
Methods: SPF grade inbred C57BL/6 male mice, weighed (20±2) g, were randomly divided into a control group, a model group, and drug groups. The mice were adapted to the rearing environment for 3 days. Then, the control group was fed with a normal feed, and the other groups were fed with a feed containing 0.2% Cuprizone for model establishment. During model establishment, the mice in each group were intragastrically administered with a corresponding dose of drug, and were reared for 5 weeks. The mice were then subjected to the Y-maze and open field behavior test, wherein the number of arm entries in Y-maze was used to reflect the motion of mice; the spontaneous alternation in Y maze was used to reflect the working memory of mice; and the spontaneous activity in open-field behavior test was used to reflect the motion of mice.

Assay [3] relates to Iba-1-labeled microglial cells in the brain of Cuprizone model mice. The assay is described as follows: Microglial cell activation in Cuprizone mouse model: Iba-1 immunohistochemical staining. It is filed as in vivo. Particulars: 25, 50 mg/kg, FIG. 10. From the text: Objective: microglial activation and neuroinflammation are the important pathogenesis for many central nervous system diseases. Iba-1 could specifically label microglial cells. In this experiment, immunohistochemical method was used to study the effects of the compounds of the invention on Iba-1-labeled microglial cells in the brain of Cuprizone model mice.
Methods: Cuprizone mouse model establishment and administration method were the same as those described in Experimental example 4. After ethological tests were performed, the mice were anaesthetized by intraperitoneal injection of 10% chloral hydrate. After perfusion, brain tissue was taken and fixed with […] paraformaldehyde, and then frozen and sliced. Immunohistochemical staining: the frozen sections were inactivated with 3% H2O2 for 10 min and rinsed with PBS; the tissues were blocked with 10% serum and incubated at 37° C. for 1 h. Serum was washed off and a primary antibody (an anti-Iba-1 antibody) was added dropwise. The resultant mixture was kept at 4° C. overnight. After rinsing with PBST, a biotin-conjugated goat anti-rabbit IgG antibody (a secondary antibody) was added dropwise, and incubated at 37° C. for 2 hrs. After rinsing with PBST, a horseradish peroxidase-conjugated streptavidin (a third antibody) was added dropwise, and incubated at 37° C. for 2 hrs. […] Iba-1 positive cells were observed under microscope, and counted.

Assay [4] concerns myelin basic protein (MBP) in the frontal cortex of Cuprizone model mice. The assay is described as follows: Demyelination in Cuprizone mouse model: MBP content by Western blot. It is filed as in vivo. Particulars: 25 and 50 mg/kg groups, FIG. 9. From the text: Objectiv: pathological changes in white matter and demyelination are the important pathogenesis for many central nervous system diseases and mental disorders. Cuprizone can cause demyelination and pathological changes in white matter. Myelin basic protein (MBP) is a marker protein for myelination of axons, and is the main component of myelin sheath. In this experiment, Western Blot method was used to study the effects of the compounds of the invention on the MBP content and demyelination in the brain of Cuprizone model mice. Methods: Cuprizone mouse model establishment and administration method were the same as those described in Experimental example 4. After ethological tests were performed, the mice were anaesthetized by intraperitoneal injection of 10% chloral hydrate. The brains were harvested and stored at −80° C. Western blot assay: brain tissue was lysed with lysate to extract protein, and the protein concentration was determined. SDS-PAGE gel electrophoresis was performed, the protein was transferred onto a membrane, and the membrane was blocked. The protein was incubated with an anti-MBP antibody (a primary antibody) overnight at 4° C. in a refrigerator. […] Signal intensity for each protein band was analyzed using FluorChem 8900 gray-scale analysis software.

pIC50: −log10 of the molar value.

Sequence of dopamine D2 receptor (DRD2) (P14416 whole entry): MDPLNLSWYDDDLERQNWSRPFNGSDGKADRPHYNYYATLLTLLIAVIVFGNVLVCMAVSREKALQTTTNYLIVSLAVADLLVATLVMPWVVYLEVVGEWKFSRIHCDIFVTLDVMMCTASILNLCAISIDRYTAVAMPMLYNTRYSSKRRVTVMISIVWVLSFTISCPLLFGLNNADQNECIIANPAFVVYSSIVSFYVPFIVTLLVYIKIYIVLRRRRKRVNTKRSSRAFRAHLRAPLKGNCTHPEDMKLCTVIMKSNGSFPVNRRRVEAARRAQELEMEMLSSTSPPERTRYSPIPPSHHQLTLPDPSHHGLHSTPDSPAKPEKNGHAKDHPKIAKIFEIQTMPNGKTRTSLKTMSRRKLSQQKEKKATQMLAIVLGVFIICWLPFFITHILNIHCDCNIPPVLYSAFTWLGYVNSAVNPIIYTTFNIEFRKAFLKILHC

Consider `COc1ccc(C2CC(=O)c3c(O)cc(OCCCN4CCN(c5ccccc5OC)CC4)cc3O2)cc1` (stereo not drawn) [Compound P6, 5-hydroxy-2-(4-methoxyphenyl)-7-(4-(4-(2-methoxyphenyl)-piperazin-1-yl)-propoxy)-chroman-4-one], for which the negative logarithm of the IC50 (pIC50) in assay [1] was 6.66. For the same compound, in assay [2], the “Distance of central district activity” value is given as 10181 ± 2110 cm; the Total distance traveled is given as 46922 ± 2233 cm; the “distance of center square activity, effect in words” value (“distance of center square activity” for short) is “could shorten the total distance of spontaneous activity and the distance of center square activity”; the “total distance of spontaneous activity, effect in words” value is listed as “could shorten the total distance of spontaneous activity”. Also, in the assay with Cuprizone model mice, the “number of arm entries in Y-maze, effect in words” value is recorded as “could reduce the number of arm entries”; the “spontaneous alternation in Y-maze, effect in words” value is reported as “enhance the spontaneous alternation”; the “total distance of spontaneous activity in open-field test, effect in words” value is “could shorten the total distance of spontaneous activity”. Further, the “number of Iba-1-labeled microglial cells in the brain, effect in words” value in assay [3] is listed as “could significantly reduce the number of microglial cells”.
For `COc1ccc(C2CC(=O)c3c(O)cc(OCCCCN4CCN(c5ccccc5OC)CC4)cc3O2)cc1` (stereo not drawn) [Compound P1, 5-hydroxy-2-(4-methoxyphenyl)-7-(4-(4-(2-methoxyphenyl)-piperazin-1-yl)-butoxy)-chroman-4-one], the negative-log IC50 (pIC50) in assay [1] is 6.69.
Same read-out and setting: for `COc1ccccc1N1CCN(CCCCOc2cc(O)c3c(c2)OC(c2ccc(C)cc2)CC3=O)CC1` (stereo not drawn) [Compound P2, 5-hydroxy-2-(4-methylphenyl)-7-(4-(4-(2-methoxyphenyl)-piperazin-1-yl)-butoxy)-chroman-4-one] the value was 6.46; for `COc1ccccc1N1CCN(CCCCOc2cc(O)c3c(c2)OC(c2ccc(F)cc2)CC3=O)CC1` (stereo not drawn) [Compound P3, 5-hydroxy-2-(4-fluorophenyl)-7-(4-(4-(2-methoxyphenyl)-piperazin-1-yl)-butoxy)-chroman-4-one], 7.24.
Turning to `COc1ccc(C2CC(=O)c3c(O)cc(OCCCCN4CCC(c5noc6cc(F)ccc56)CC4)cc3O2)cc1` (stereo not drawn) [Compound P5, 5-hydroxy-2-(4-methoxyphenyl)-7-(4-(4-(6-fluoro-benzo[d]isoxazol-3-yl)-piperidin-1-yl)-butoxy)-chroman-4-one], the negative-log IC50 (pIC50) in assay [1] was 7.29. Also, in assay [2], the “Distance of central district activity” value is reported as 9211 ± 1845 cm; the Total distance traveled amounted to 30914 ± 3351 cm; the “distance of center square activity” value is “could shorten the total distance of spontaneous activity and the distance of center square activity”; the “total distance of spontaneous activity, effect in words” value is listed as “could shorten the total distance of spontaneous activity”. Further, in the assay on Cuprizone model mice, the “number of arm entries in Y-maze, effect in words” value is “could reduce the number of arm entries”; the “spontaneous alternation in Y-maze, effect in words” value is “enhance the spontaneous alternation”; the “total distance of spontaneous activity in open-field test, effect in words” value is “could shorten the total distance of spontaneous activity”. Further, the “MBP content in frontal cortex, effect in words” value in assay [4] was “could significantly enhance the MBP content”.
Consider `O=C1CC(c2ccc(F)cc2)Oc2cc(OCCCCN3CCC(c4noc5cc(F)ccc45)CC3)cc(O)c21` (stereo not drawn) [Compound P4, 5-hydroxy-2-(4-fluorophenyl)-7-(4-(4-(6-fluoro-benzo[d]isoxazol-3-yl)-piperidin-1-yI)-butoxy)-chroman-4-one], for which the pIC50 in assay [1] was 7.06. Further, in assay [2], the “Distance of central district activity” value came out at 11098 ± 1422 cm and the Total distance traveled turned out to be 39222 ± 4300 cm. For the same compound, the “MBP content in frontal cortex, effect in words” value in assay [4] is on record as “could significantly enhance the MBP content”.
For `COc1ccc(C2CC(=O)c3c(O)cc(OCCCN4CCC(c5noc6cc(F)ccc56)CC4)cc3O2)cc1` (stereo not drawn) [Compound P7, 5-hydroxy-2-(4-methoxyphenyl)-7-(4-(4-(6-fluoro-benzo[d]isoxazol-3-yl)-piperidin-1-yl)-propoxy)-chroman-4-one], the pIC50 in assay [1] was 6.94. For the same compound, in assay [2], the “Distance of central district activity” value turned out to be 7913 ± 1666 cm; the Total distance traveled amounted to 37051 ± 4308 cm; the “distance of center square activity” value is “could shorten the total distance of spontaneous activity and the distance of center square activity”; the “total distance of spontaneous activity, effect in words” value is “could shorten the total distance of spontaneous activity”.

The record behind these values is patent US10513512B2, “Flavanone derivatives, and preparation method and use thereof” (Xuanwu Hospital of Capital Medical University, priority 2016, dated 2019).
